Measured values from US8173657B2, “Imidazoquinoxaline compounds as immunomodulators” (Novartis AG, priority 2006, dated 2012).

Assays:
Type in all cases: cell-based
TNF-α = assay: Compound stimulation and multi-cytokine measurement (TNF-α production); details: cytokine induction; FIG. 2: human PBMC TNF-α production; read-out: EC50 value with respect to agonism of TNF-α
Method: Human blood from one or multiple human donors were collected into the BD Vacutainer™ CPT tube with sodium citrate (BD, Franklin Lakes, N.J.), and spun for 20 minutes at 1600 g. After centrifugation, mononuclear cells in the top layer in the tubes were collected and then washed three times with PBS buffer. The washed cells were then reconstituted at a required cell concentration in complete RPMI containing 10% FBS plus 100 units/ml penicillin and 100 ug/ml streptomycin.
Human PBMC (hPBMC) (at 1 million cells/ml) or mouse spleen cells (at 5 million cells/ml) or human monocytic THP-1 cells (at 1 million cells/ml) were mixed with tested compounds such as imidazoquinoxalines at titrated compound concentrations in the complete RPMI medium. After the cell cultures were incubated for 24 hours at 37° C., 5% CO2, the culture supernatant was collected and assayed for the secreted cytokines in the presence of the compounds. […]
Due to the agonist nature of the compounds tested, compound ranking is based on potency in cell-based screens for cytokine induction. Briefly, the EC50 of each compound for a given cytokine is calculated relative to a reference composition (i.e. LPS or other potent immune stimulator). […] Rank-scoring of SMIP potency is calculated by dividing the maximum concentration of cytokine produced by the relative EC50 established for each compound indicated.

human TLR8 = biological target: T1, human TLR8 (Homo sapiens, UniProt Q9NR97); assay: TLR signaling, NF-kB luciferase reporter in transfected HEK293 cells; details: HEK293 transfected with hTLR8, NF-kB luciferase; FIG. 1
T1 construct: host or cells: HEK293 cells (ATCC, CRL-1573)
T1 sequence (Q9NR97 27-1041): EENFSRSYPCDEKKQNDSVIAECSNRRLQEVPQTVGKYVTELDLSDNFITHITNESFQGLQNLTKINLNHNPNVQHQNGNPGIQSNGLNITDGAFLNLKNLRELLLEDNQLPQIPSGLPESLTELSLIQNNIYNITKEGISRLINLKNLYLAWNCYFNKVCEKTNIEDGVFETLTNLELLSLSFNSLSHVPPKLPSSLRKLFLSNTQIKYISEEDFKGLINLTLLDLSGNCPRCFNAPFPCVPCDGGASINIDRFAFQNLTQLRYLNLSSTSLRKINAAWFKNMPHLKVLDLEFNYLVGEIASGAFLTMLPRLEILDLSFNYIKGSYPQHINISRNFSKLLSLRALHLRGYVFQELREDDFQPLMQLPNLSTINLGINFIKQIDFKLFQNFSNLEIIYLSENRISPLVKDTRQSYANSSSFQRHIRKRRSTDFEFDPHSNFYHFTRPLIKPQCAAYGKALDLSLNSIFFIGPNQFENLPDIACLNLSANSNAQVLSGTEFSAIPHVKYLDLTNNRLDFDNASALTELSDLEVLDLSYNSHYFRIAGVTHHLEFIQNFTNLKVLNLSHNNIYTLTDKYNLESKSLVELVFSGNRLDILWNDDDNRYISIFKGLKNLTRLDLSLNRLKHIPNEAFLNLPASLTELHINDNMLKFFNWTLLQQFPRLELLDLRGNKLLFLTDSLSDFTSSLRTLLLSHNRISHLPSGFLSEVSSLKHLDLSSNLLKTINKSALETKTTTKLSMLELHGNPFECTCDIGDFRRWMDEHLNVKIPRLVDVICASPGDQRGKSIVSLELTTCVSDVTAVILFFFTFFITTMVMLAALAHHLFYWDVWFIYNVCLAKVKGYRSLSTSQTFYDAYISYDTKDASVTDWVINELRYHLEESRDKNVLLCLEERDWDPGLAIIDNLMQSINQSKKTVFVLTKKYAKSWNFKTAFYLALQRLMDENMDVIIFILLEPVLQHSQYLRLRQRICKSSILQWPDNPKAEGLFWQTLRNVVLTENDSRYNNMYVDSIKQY
Method: (§1) HEK293 cells (ATCC, CRL-1573) are seeded in a T75 flask at 3×10^6 in 20 ml of DMEM supplemented with 0.1 mM nonessential amino acid, 1 mM sodium pyruvate, 2 mM L-glutamine, penicillin-streptomycin, and 10% FCS. After overnight culturing, the cells are transfected with 1) pNFkB-TA-luciferase reporter (0.4 ug) (BD clontech, Palo Alto, Calif.), and with 2) with pGL4.74 (0.01 ug) that carries a TK promoter, not responsive to NF-kB stimulation, and carries a Renilla luciferase gene, used as an internal control (Promega, Wis.), and 3), separately with a following TLR construct (10 ug): human TLR (hTLR) 7, hTLR8, mouse TLR7 (mTLR7) puno constructs (Invivogene, CA), using Fugene 6 transfection reagent (Roche). The transfected cells after 24 hours transfection are collected and seeded in a 96-well and flat-bottom plate (1×10^4 cell/well) plate, and stimulated with the test compounds at the following concentrations: 30, 10, 3, 1, 0.3, 0.1, 0.03 uM. After overnight compound stimulation, the cells are assayed for expression of fly and renilla luciferases using Dual-Luciferase Reporter Assay System (Promega, WI). NF-kb activation is directly proportional to relative fly luciferase units, which is measured against the internal control renilla luciferase units.

mouse TLR7 = biological target: T2, mouse TLR7 (Mus musculus, UniProt P58681); assay: as above; details: HEK293 transfected with mTLR7, NF-kB luciferase; FIG. 1
T2 construct: host or cells: HEK293 cells (ATCC, CRL-1573)
T2 sequence (P58681 27-1050): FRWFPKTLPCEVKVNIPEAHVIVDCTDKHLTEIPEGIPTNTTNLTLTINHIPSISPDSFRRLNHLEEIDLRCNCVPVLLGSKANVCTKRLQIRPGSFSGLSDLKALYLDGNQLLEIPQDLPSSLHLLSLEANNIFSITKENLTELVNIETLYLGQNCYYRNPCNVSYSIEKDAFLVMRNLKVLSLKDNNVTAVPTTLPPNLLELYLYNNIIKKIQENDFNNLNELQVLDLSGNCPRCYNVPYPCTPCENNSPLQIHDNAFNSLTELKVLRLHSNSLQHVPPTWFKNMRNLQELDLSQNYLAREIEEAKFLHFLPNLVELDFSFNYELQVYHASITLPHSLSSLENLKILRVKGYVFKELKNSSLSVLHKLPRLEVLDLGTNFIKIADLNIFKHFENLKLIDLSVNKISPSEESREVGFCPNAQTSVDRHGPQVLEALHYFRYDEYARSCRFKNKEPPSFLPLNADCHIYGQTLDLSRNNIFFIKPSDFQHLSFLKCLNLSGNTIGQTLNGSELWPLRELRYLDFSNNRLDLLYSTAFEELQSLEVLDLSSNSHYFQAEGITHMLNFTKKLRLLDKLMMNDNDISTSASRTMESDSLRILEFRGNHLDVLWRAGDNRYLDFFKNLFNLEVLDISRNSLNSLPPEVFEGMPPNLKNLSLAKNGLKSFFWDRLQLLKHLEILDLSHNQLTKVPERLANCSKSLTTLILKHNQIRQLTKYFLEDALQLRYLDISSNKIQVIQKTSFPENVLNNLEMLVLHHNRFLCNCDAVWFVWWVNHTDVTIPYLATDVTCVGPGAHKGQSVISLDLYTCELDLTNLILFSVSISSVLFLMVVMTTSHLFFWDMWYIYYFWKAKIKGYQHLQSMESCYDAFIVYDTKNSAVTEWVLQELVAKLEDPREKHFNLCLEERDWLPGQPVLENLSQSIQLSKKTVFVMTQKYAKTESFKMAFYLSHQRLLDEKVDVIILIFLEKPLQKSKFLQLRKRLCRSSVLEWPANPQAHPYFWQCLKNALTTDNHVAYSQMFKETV
Method: as §1

human TLR7 = biological target: T3, human TLR7 (Homo sapiens, UniProt Q9NYK1); assay: as above; details: HEK293 transfected with hTLR7, NF-kB luciferase; FIG. 1
T3 construct: host or cells: HEK293 cells (ATCC, CRL-1573)
T3 sequence (Q9NYK1 27-1049): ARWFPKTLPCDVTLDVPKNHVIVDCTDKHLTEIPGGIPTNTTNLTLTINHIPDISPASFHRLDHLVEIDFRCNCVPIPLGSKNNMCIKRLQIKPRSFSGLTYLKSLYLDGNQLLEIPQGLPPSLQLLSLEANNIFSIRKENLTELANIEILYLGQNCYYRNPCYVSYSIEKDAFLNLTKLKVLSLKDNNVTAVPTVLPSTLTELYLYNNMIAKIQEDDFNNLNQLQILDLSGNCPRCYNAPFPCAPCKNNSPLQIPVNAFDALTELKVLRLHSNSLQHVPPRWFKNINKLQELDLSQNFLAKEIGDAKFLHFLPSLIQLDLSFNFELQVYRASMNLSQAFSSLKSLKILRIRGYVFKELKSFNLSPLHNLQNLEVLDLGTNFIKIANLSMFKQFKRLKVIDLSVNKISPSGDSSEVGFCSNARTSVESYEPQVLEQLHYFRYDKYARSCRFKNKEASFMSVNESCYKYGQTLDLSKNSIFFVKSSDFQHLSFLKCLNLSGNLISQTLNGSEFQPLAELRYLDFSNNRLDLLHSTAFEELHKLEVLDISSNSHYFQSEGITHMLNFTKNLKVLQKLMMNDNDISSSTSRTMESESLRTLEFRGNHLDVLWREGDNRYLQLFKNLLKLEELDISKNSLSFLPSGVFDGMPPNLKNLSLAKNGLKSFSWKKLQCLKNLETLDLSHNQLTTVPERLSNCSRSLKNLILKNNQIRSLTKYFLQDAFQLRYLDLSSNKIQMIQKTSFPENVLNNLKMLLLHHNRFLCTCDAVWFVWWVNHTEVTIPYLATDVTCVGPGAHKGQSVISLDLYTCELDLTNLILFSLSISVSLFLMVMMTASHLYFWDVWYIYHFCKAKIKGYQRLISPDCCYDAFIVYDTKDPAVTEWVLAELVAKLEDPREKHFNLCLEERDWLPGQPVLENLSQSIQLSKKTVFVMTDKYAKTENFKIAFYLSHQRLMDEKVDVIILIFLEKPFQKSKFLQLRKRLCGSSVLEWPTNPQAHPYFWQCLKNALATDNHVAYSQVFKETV
Method: as §1

IL-6 = assay: Compound stimulation and multi-cytokine measurement (IL-6 production); details: cytokine induction; cell type not stated at the result; read-out: EC50 value with respect to agonism of IL-6
Method: Human PBMC (hPBMC) (at 1 million cells/ml) or mouse spleen cells (at 5 million cells/ml) or human monocytic THP-1 cells (at 1 million cells/ml) were mixed with tested compounds such as imidazoquinoxalines at titrated compound concentrations in the complete RPMI medium. After the cell cultures were incubated for 24 hours at 37° C., 5% CO2, the culture supernatant was collected and assayed for the secreted cytokines in the presence of the compounds. Human or mouse Beadlyte multi-cytokine flex kits (Upstate, Lake Placid, N.Y.) were used to measure the amount of the following cytokines: TNF-α and IL-6 according to the manufacturers instructions.
Due to the agonist nature of the compounds tested, compound ranking is based on potency in cell-based screens for cytokine induction. Briefly, the EC50 of each compound for a given cytokine is calculated relative to a reference composition (i.e. LPS or other potent immune stimulator). This value is then used as the divisor of the maximum level of cytokine produced (pg/ml) in the assay. Five parameter curve fitting of cytokine dose response curves to different SMIPs for the indicated cell populations is used to calculate EC50. Rank-scoring of SMIP potency is calculated by dividing the maximum concentration of cytokine produced by the relative EC50 established for each compound indicated.

EC50 (TNF-α) [µM]	stimulatory activity with human TLR8 (human TLR8)	stimulation of human TLR7 (human TLR7)	EC50 (IL-6) [µM]	SMILES	reactivity for mouse TLR7 (mouse TLR7)
< 15	stimulatory activity	activity for stimulation	< 15	CC(C)Cc1cn2c(n1)c(N)nc1ccccc12 [Example 3, 2-isobutylimidazo[1,2-a]quinoxalin-4-amine]	slightly more reactivity for mouse TLR7 than did the compound of Example 4
< 15	little or no reactivity		< 15	CC(C)Cc1nc2c(N)nc3ccccc3n2c1CC(C)(C)O [Example 4, 1-(4-amino-2-isobutylimidazo[1,2-a]quinoxalin-1-yl)-2-methylpropan-2-ol]	
